{"source": "patent USRE48267E1", "about": "“Variants of C-type natriuretic peptide” (priority 2009, dated 2020)", "key": {"[1]": {"molecular_target": "Recombinant human NEP (Homo sapiens, UniProt P08473)", "sequence (P08473 whole entry)": "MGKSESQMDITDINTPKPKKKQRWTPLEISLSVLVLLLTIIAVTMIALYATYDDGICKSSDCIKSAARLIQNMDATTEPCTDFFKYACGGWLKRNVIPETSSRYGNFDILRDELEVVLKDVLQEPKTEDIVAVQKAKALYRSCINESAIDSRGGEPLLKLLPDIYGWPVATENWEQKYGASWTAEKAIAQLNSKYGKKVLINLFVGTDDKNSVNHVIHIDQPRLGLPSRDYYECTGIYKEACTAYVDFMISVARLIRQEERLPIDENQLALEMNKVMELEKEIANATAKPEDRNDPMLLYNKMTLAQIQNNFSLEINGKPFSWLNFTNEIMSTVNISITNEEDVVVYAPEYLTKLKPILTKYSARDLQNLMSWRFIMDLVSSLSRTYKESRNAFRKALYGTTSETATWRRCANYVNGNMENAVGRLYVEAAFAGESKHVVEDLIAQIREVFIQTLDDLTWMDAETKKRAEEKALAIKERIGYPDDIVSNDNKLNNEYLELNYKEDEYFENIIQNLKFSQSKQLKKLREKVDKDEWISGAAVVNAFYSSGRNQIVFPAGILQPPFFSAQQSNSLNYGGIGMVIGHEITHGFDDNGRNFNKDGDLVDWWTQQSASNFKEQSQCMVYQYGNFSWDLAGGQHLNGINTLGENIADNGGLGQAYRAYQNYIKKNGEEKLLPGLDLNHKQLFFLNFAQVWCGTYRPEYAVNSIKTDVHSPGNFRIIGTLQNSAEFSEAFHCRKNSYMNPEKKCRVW", "test": "in vitro NEP cleavage assay (disappearance of non-cleaved CNP variant)", "in_short": "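Recombinant human NEP (1 ug/mL final) incubated with 100 uM CNP variant in 0.1 M Tris, pH 7, at 37° C for various times, then quenched with EDTA (10 mM final) and heat. Samples reduced and analysed by HPLC and mass spectrometry. Half-life derived from loss of intact variant over time.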"}, "[2]": {"tested_on": "FGFR3^ach mice", "test": "efficacy in mouse model of mild achondroplasia", "type": "in vivo", "settings": "200 nmol/kg s.c. once daily for 5 weeks", "description": "To assess the biodistribution of CNP37 in the bone growth plate in vivo and the in vivo effects of CNP37 on the growth plate (including total growth plate thickness, hypertrophic zone thickness, and cellularity of proliferating zone), bone samples were obtained from FGFR3^ach mice treated with vehicle or CNP37 as described above. For biodistribution and in vivo effects studies, tibias were fixed and stored in 70% ethanol. For immunohistochemistry, the samples were decalcified in 5% formic acid for 2 days, dehydrated and embedded in paraffin. Bones were sectioned at 5 um (microns), which were then deparaffinized, rehydrated, and used for CNP immunohistochemistry as described above. For cellular image analysis, bones were sectioned at 5 (microns), and then deparaffinized, rehydrated, and stained with Alcian Blue for 30 minutes (pH 2.5; MasterTech) and Hematoxylin &\nEosin for 30 seconds. Stained sections were visualized and photographed by brightfield microscopy. Thicknesses of the growth plate and the proliferating and hypertrophic zones were measured using ImageJ software.\nThe efficacy of CNP variants in enhancing growth and correcting achondroplasia was tested in a mouse model of mild achondroplasia, using a strain of transgenic mice expressing a human FGFR-3 gene having a G380R mutation (FGFR3^ach) (Wang et al., Proc. Natl. Acad. Sci. USA, 96(8): 4455-4460 (1999); Naski et al., Development USA, 125: 4977-4988 (1998); U.S. Pat. Nos. 6,265,632 and 6,136,040).\nAt 3 weeks of age, FGFR3^ach mice and their wild-type littermates were anesthetized to have lateral whole-body X-ray images taken by Faxitron, and randomized by body weight into the following treatment groups (n=8/group): (1) wild-type/vehicle, (2) FGFR3^ach/vehicle, (3) FGFR3^ach/CNP37, and (4) FGFR3^ach/PEO24-GANRR-CNP22(K4R) (SEQ ID NO: 36). The mice received once daily subcutaneous (s.c.) administration of designated test article (vehicle or 200 nmol/kg CNP variant) for 5 weeks. Satellite groups (n=3) were used to confirm exposure of each test article following a single subcutaneous administration on Day 1. Wild-type male FVB mice that received daily s.c. injection of vehicle for 5 weeks were used as a control for normal growth.\nX-ray measurements at baseline and at the end of the study were performed to determine change in the head length, area of the skull, and the external auditory meatus (EAM, the ear canal running from the outer ear to the middle ear). Body weight and tail length were measured at least once weekly, using a digital caliper to measure tail length, and body (nasoanal) length was measured after 5 weeks of treatment. Bone (tibia, femur, ulna and humerus) lengths were measured using a digital caliper at necropsy.\nOn Day 37, all mice were sacrificed by terminal anesthesia and whole-animal photographs and X-ray images by Faxitron were taken. Left and right tibia, femur, humerus, and ulna were collected and measured using a digital caliper. The left portions of each bone were processed for histology, and the right portions were snap-frozen for archival. Samples obtained from the bones were used to evaluate the effects of NP variants on endochondral bone growth."}}, "note": "Where a SMILES comes first, the peptide text is derived from it. Bridges are numbered along the chain shown (N, C = ends). The star is where a group is joined. MeO(CH2CH2O)23CH2CH2CO = COCCOCCOCCOCCOCCOCCOCCOCCOCCOCCOCCOCCOCCOCCOCCOCCOCCOCCOCCOCCOCCOCCOCCOCCC(=O)*"}
{"compound": "CC[C@H](C)[C@@H]1NC(=O)[C@H](CCCNC(=N)N)NC(=O)[C@H](CC(=O)O)NC(=O)[C@H](CC(C)C)NC(=O)[C@H](CCCCN)NC(=O)[C@H](CC(C)C)NC(=O)CNC(=O)[C@H](Cc2ccccc2)NC(=O)[C@@H](NC(=O)CNC(=O)[C@H](CCCNC(=N)N)NC(=O)[C@H](CO)NC(=O)[C@H](CC(C)C)NC(=O)CNC(=O)[C@H](CCCNC(=N)N)NC(=O)[C@H](CCCNC(=N)N)NC(=O)[C@H](CC(N)=O)NC(=O)[C@H](C)NC(=O)CNC(=O)CCOCCOCCOCCOCCOCCOCCOCCOCCOCCOCCOCCOCCOCCOCCOCCOCCOCCOCCOCCOCCOCCOCCOCCOC)CSSC[C@@H](C(=O)O)NC(=O)CNC(=O)[C@H](CC(C)C)NC(=O)CNC(=O)[C@H](CO)NC(=O)[C@H](CCSC)NC(=O)[C@H](CO)NC(=O)CNC1=O", "note": "[PEO24-GANRR-CNP22(K4R)] ({MeO(CH2CH2O)23CH2CH2CO}-GANRRGLSRGCFGLKLDRIGSMSGLGC-OH; disulfide 11-27)", "values": [{"measurement": "resistance to NEP cleavage (in words)", "setting": "[1]", "result": "completely resistant to NEP cleavage over the assay period of 160 minutes"}, {"measurement": "Femur length, relative to vehicle-treated FGFR3^ach mice = 100%", "setting": "[2]", "result": 100, "unit": "%"}, {"measurement": "Humerus length, relative to vehicle-treated FGFR3^ach mice = 100%", "setting": "[2]", "result": 100, "unit": "%"}, {"measurement": "Naso-Anal length, relative to vehicle-treated FGFR3^ach mice = 100%", "setting": "[2]", "result": 99, "unit": "%"}, {"measurement": "Tail length, relative to vehicle-treated FGFR3^ach mice = 100%", "setting": "[2]", "result": 100, "unit": "%"}, {"measurement": "Tibia length, relative to vehicle-treated FGFR3^ach mice = 100%", "setting": "[2]", "result": 102, "unit": "%"}, {"measurement": "Ulna length, relative to vehicle-treated FGFR3^ach mice = 100%", "setting": "[2]", "result": 101, "unit": "%"}]}
